Source: patent publication US10407414B2, “Mannose derivatives for treating bacterial infections” (priority 2015, dated 2019)

System: bacterial strain LF82 binding to the glycoprotein BSA-(Mannose)3 (FimH antagonists)
Test: Bacterial Binding Assay (BBA)
Assay type: cell-based, Escherichia coli
Settings: read-out: Bacterial Binding Assay IC50 ± SEM
Source text: The purpose of the Bacterial Binding Assay (BBA) is to determine the inhibition activity of selective FimH antagonists on the bacterial strain LF82 binding to the glycoprotein BSA-(Mannose)3.
Below is a list of the Materials used to run the BBA are described below. • 1. LB broth: Supplier: Gibco, #10855 • 2. D-PBS: Supplier: Wisent, #311-425-CL • 3. LB agar plates • 4. 96-well black plate (high binding): Supplier: Costar, #3925 • 5. TopSeal™-A adhesive sealing films; Supplier PerkinElmer, #6005185 • 6. Carbonate-bicarbonate buffer pH 9.6 tablets, Supplier: Medicago, #09-8922-24 • 7. Water, Supplier: Gibco, #15230-162 • 8. Bovine serum albumin (BSA): Supplier: Sigma, #A-7888 • 9. (Man)3-BSA (α1-3, α1-6 Mannotriose-BSA, 1 mg), V-Labs, #NGP1336, lot# HGDX37-169-1 • 10. Tween 20: Supplier: Sigma, #P9416 • 11. Bright-Glo Luciferase Assay System: Supplier: Promega, #E2610 • 12. LF82/Luciferase strain: Invasive ability of an Escherichia coli strain isolated from the ileal mucosa of a patient with Crohn's disease. Boudeau J, Glasser A L, Masseret E, Joly B, Darfeuille-Michaud A, Infect Immun. 1999, 67(9), 4499-509
Solutions and buffers used to run the BBA are described below. • 1. 0.04M carbonate-bicarbonate buffer (coating buffer) • 2. 40 μg/mL BSA-(Man)3: Dissolve 1 mg of (Man)3-BSA in 25 mL of water. • 3. 4000 μg/mL BSA • 4. 40 μg/mL BSA • 5. 1 μg/mL BSA-(Man)3: 150 μL of 40 μg/mL BSA-(Man)3+5.85 mL of 40 μg/mL BSA • 6. 0.5 μg/mL BSA-(Man)3 in 0.02M carbonate-bicarbonate buffer. • 7. 20 μg/mL BSA in 0.02M carbonate-bicarbonate buffer • 8. Blocking buffer (2% BSA/DPBS): 1 g of BSA in 50 mL D-PBS • 9. 2× binding buffer (0.2% BSA/D-PBS): 5 mL of blocking buffer+45 mL D-PBS. • 10. Washing buffer (D-PBS/0.01% Tween 20): 10 μL of Tween 20 in 100 mL D-PBS. • 11. 1× Bright-Glo Luciferase substrate: Dilute 1:1 the Bright-Glo Luciferase Assay System with D-PBS
The experimental protocol used in this example to run the BBA is described below.
Overnight culture of LF82/Luciferase strain: Into two Falcon 50 mL tubes, add 20 mL of LB+20 μL of 50 mg/mL Kanamycin and inoculate with a loop from glycerol stock of the LF82/Luciferase strain. Incubate overnight at 37° C. with no shaking.
Glycoprotein coating of 96-well plates: Add 100 μL/well of 0.5-2 μg/mL BSA-(Man)3. 20 μg/mL BSA is used as the control background. Seal plate using an adhesive sealing film and incubate overnight at room temperature. Wash the 96-well plate three times with 150 μL/well of D-PBS, add 170 μL/well of blocking solution and incubate 45 min (minimum) at room temperature.
Preparation of bacterial suspension: Mix the two cultures tubes (40 mL) and perform a 1:10 dilution in LB (900 μl LB+100 μl culture. Measure optical density (OD) of the bacterial cultures. OD1 ˜5×10^8 cells/mL. Centrifuge LF82 culture for 20 min at 3500 rpm at room temperature. Re-suspend bacterial pellet in D-PBS and centrifuge again for 20 min at 3500 rpm. Re-suspend bacterial pellet in D-PBS to obtain a bacterial concentration of 2×10^9 bacteria/mL. Dilute 1/10 in D-PBS to obtain a final bacterial concentration of 2×10^8 bacteria/mL (=107 bacteria/50 μL). Perform 1/10 serial dilutions in LB of each bacterial suspension, plate 10 μL of dilutions on LB agar plates (final dilutions of 10^−7) and incubate overnight at 37° C. and count CFUs to determine the actual bacteria density in the assay.
Bacterial binding assay: Add 147 μL 2× binding buffer to compound plate (containing 3 μL of compound). After blocking step is performed (at least 45 min), wash plates three times with 200 μL/well of D-PBS. With a 100 μL multichannel manual pipettor, add 50 μL/well of compound diluted in 2× binding buffer. With a 100 μL multichannel manual pipettor, add 50 μL/well of bacterial suspension. Agitate at slow speed for 1 min and incubate 40-75 min at room temperature. Wash 5 times with 150 μL/well of washing buffer and then once with D-PBS. Add 100 μL/well of 1× Bright-Glo Luciferase substrate. […]

Structure (SMILES) | IC50 [µM]
OC[C@H]1O[C@H](C#Cc2cccc3cn[nH]c23)[C@@H](O)[C@@H](O)[C@@H]1O [Compound 1, (2R,3S,4R,5S,6R)-2-(hydroxymethyl)-6-[2-(1H-indazol-7-yl)ethynyl]tetrahydropyran-3,4,5-triol] | 0.098 ± 0.022
Cc1cc(C#C[C@H]2O[C@H](CO)[C@@H](O)[C@H](O)[C@@H]2O)c2[nH]ncc2c1 [Compound 2, (2R,3S,4R,5S,6R)-2-(hydroxymethyl)-6-[2-(5-methyl-1H-indazol-7-yl)ethynyl]tetrahydropyran-3,4,5-triol] | 0.014 ± 0.002
OC[C@H]1O[C@H](C#Cc2cccc3[nH]ncc23)[C@@H](O)[C@@H](O)[C@@H]1O [Compound 3, (2R,3S,4R,5S,6R)-2-(hydroxymethyl)-6-[2-(1H-indazol-4-yl)ethynyl]tetrahydropyran-3,4,5-triol] | 0.11 ± 0.01
Cc1cc(C#C[C@H]2O[C@H](CO)[C@@H](O)[C@H](O)[C@@H]2O)c2[nH]ccc2c1 [Compound 4, (2R,3S,4R,5S,6R)-2-(hydroxymethyl)-6-[2-(5-methyl-1H-indol-7-yl)ethynyl]tetrahydropyran-3,4,5-triol] | 0.046 ± 0.012
N#Cc1cc(C#C[C@H]2O[C@H](CO)[C@@H](O)[C@H](O)[C@@H]2O)c2nc[nH]c2c1 [Compound 5, 7-[2-[(2R,3S,4R,5S,6R)-3,4,5-trihydroxy-6-(hydroxymethyl)tetrahydropyran-2-yl]ethynyl]-3H-benzimidazole-5-carbonitrile] | 0.02 ± 0.002
OC[C@H]1O[C@H](C#Cc2cc(Cl)cc3cn[nH]c23)[C@@H](O)[C@@H](O)[C@@H]1O [Compound 6, (2R,3S,4R,5S,6R)-2-[2-(5-chloro-1H-indazol-7-yl)ethynyl]-6-(hydroxymethyl)tetrahydropyran-3,4,5-triol] | 0.024 ± 0.005
Cc1cc(C#C[C@H]2O[C@H](CO)[C@@H](O)[C@H](O)[C@@H]2O)c2cn[nH]c2c1 [Compound 7, (2R,3S,4R,5S,6R)-2-(hydroxymethyl)-6-[2-(6-methyl-1H-indazol-4-yl)ethynyl]tetrahydropyran-3,4,5-triol] | 0.076 ± 0.026
OC[C@H]1O[C@H](C#Cc2cccc3nn[nH]c23)[C@@H](O)[C@@H](O)[C@@H]1O [Compound 8, (2R,3S,4R,5S,6R)-2-[2-(3H-benzotriazol-4-yl)ethynyl]-6-(hydroxymethyl)tetrahydropyran-3,4,5-triol] | 0.18 ± 0.04
OC[C@H]1O[C@H](C#Cc2cccc3c2NCC3)[C@@H](O)[C@@H](O)[C@@H]1O [Compound 9, (2R,3S,4R,5S,6R)-2-(hydroxymethyl)-6-(2-indolin-7-ylethynyl)tetrahydropyran-3,4,5-triol] | 0.725 ± 0.155
OC[C@H]1O[C@H](C#Cc2cccc3ncoc23)[C@@H](O)[C@@H](O)[C@@H]1O [Compound 10, (2R,3S,4R,5S,6R)-2-[2-(1,3-benzoxazol-7-yl)ethynyl]-6-(hydroxymethyl)tetrahydropyran-3,4,5-triol] | 0.217 ± 0.133
O=C1Cc2cccc(C#C[C@H]3O[C@H](CO)[C@@H](O)[C@H](O)[C@@H]3O)c2N1 [Compound 11, 7-[2-[(2R,3S,4R,5S,6R)-3,4,5-trihydroxy-6-(hydroxymethyl)tetrahydropyran-2-yl]ethynyl]indolin-2-one] | 0.19 ± 0.075
O=c1[nH]c2cc(Cl)cc(C#C[C@H]3O[C@H](CO)[C@@H](O)[C@H](O)[C@@H]3O)c2[nH]1 [Compound 12, 6-chloro-4-[2-[(2R,3S,4R,5S,6R)-3,4,5-trihydroxy-6-(hydroxymethyl)tetrahydropyran-2-yl]ethynyl]-1,3-dihydrobenzimidazol-2-one] | 0.016 ± 0.006
Cn1ncc2cccc(C#C[C@H]3O[C@H](CO)[C@@H](O)[C@H](O)[C@@H]3O)c21 [Compound 13, (2R,3S,4R,5S,6R)-2-(hydroxymethyl)-6-[2-(1-methylindazol-7-yl)ethynyl]tetrahydropyran-3,4,5-triol] | 0.48 ± 0.15
OC[C@H]1O[C@H](C#Cc2nccc3cn[nH]c23)[C@@H](O)[C@@H](O)[C@@H]1O [Compound 14, (2R,3S,4R,5S,6R)-2-(hydroxymethyl)-6-[2-(1H-pyrazolo[3,4-c]pyridin-7-yl)ethynyl]tetrahydropyran-3,4,5-triol] | 0.35 ± 0.08
CCCCc1cc(C#C[C@H]2O[C@H](CO)[C@@H](O)[C@H](O)[C@@H]2O)c2[nH]c(=O)[nH]c2c1 [Compound 15, 6-butyl-4-[2-[(2R,3S,4R,5S,6R)-3,4,5-trihydroxy-6-(hydroxymethyl)tetrahydropyran-2-yl]ethynyl]-1,3-dihydrobenzimidazol-2-one] | 0.0007 ± 0.0002
OC[C@H]1O[C@H](C#Cc2cc(Br)cc3cn[nH]c23)[C@@H](O)[C@@H](O)[C@@H]1O [Compound 16, (2R,3S,4R,5S,6R)-2-[2-(5-bromo-1H-indazol-7-yl)ethynyl]-6-(hydroxymethyl)tetrahydropyran-3,4,5-triol] | 0.008 ± 0.001
COc1ccc(Cn2cc3cc(Br)cc(C#C[C@H]4O[C@H](CO)[C@@H](O)[C@H](O)[C@@H]4O)c3n2)cc1 [Compound 17, (2R,3S,4R,5S,6R)-2-[2-[5-bromo-2-[(4-methoxyphenyl)methyl]indazol-7-yl]ethynyl]-6-(hydroxymethyl)tetrahydropyran-3,4,5-triol] | 0.046 ± 0.014
COc1ccc(Cn2ncc3cc(Br)cc(C#C[C@H]4O[C@H](CO)[C@@H](O)[C@H](O)[C@@H]4O)c32)cc1 [Compound 18, (2R,3S,4R,5S,6R)-2-[2-[5-bromo-1-[(4-methoxyphenyl)methyl]indazol-7-yl]ethynyl]-6-(hydroxymethyl)tetrahydropyran-3,4,5-triol] | 0.067 ± 0.026
CCCCc1cc(C#C[C@H]2O[C@H](CO)[C@@H](O)[C@H](O)[C@@H]2O)c2[nH]nnc2c1 [Compound 19, (2R,3S,4R,5S,6R)-2-[2-(6-butyl-3H-benzotriazol-4-yl)ethynyl]-6-(hydroxymethyl)tetrahydropyran-3,4,5-triol] | 0.002 ± 0.0006
CCCCc1cc(C#C[C@H]2O[C@H](CO)[C@@H](O)[C@H](O)[C@@H]2O)c2[nH]cnc2c1 [Compound 20, (2R,3S,4R,5S,6R)-2-[2-(6-butyl-3H-benzimidazol-4-yl)ethynyl]-6-(hydroxymethyl)tetrahydropyran-3,4,5-triol] | 0.002 ± 0.0002
CCCCn1ncc2c(C#C[C@H]3O[C@H](CO)[C@@H](O)[C@H](O)[C@@H]3O)cccc21 [Compound 21, (2R,3S,4R,5S,6R)-2-[2-(1-butylindazol-4-yl)ethynyl]-6-(hydroxymethyl)tetrahydropyran-3,4,5-triol] | 0.022 ± 0.0005
CCCCc1cc(C#C[C@H]2O[C@H](CO)[C@@H](O)[C@H](O)[C@@H]2O)c2c(cnn2C)c1 [Compound 22, (2R,3S,4R,5S,6R)-2-[2-(5-butyl-1-methyl-indazol-7-yl)ethynyl]-6-(hydroxymethyl)tetrahydropyran-3,4,5-triol] | 0.053 ± 0.004
CCCCc1cc(C#C[C@H]2O[C@H](CO)[C@@H](O)[C@H](O)[C@@H]2O)c2nn(C)cc2c1 [Compound 23, (2R,3S,4R,5S,6R)-2-[2-(5-butyl-2-methyl-indazol-7-yl)ethynyl]-6-(hydroxymethyl)tetrahydropyran-3,4,5-triol] | 0.009
